Tests used:
GIRK1/4 = GIRK1/4 (Homo sapiens (Human), UniProt P48544+P48549); assay: GIRK1/4 activity assay (Quattro/IonWorks population patch clamp, inward potassium current); type: cell-based; details: GIRK1/4 HEK293 stable cells; current inhibition normalized to DMSO-only control
Description: The GIRK1/4 activity of a compound according to the present invention was assessed by the following in vitro method.
• a. External buffer: 10 mM NaCl, 50 mM Na Gluconate, 80 mM K Gluconate, 1.8 mM CaCl2, 1 mM MgCl2, 10 mM HEPES, 10 mM Glucose, pH 7.4; osmolarity 300-310 Osm/L. • b. Internal buffer: 30 mM KCl, 100 mM K Gluconate, 1 mM MgCl2, 10 mM HEPES, 1 mM EGTA, 10 mM NaCl, pH 7.2; osmolarity 284-292 Osm/L. Compounds: • c. Prepare seven-fold compound dilution series (10 mM to 20 uM) in 100% DMSO, in 384-well polypropylene plates. • d. Propafenone (Sigma Aldrich, catalog number P4670) was used as a positive control and DMSO for neutral control • e. Resuspend 1 μl of compounds in DMSO into 66.7 μl external buffer in 384-well polypropylene plate and load into Plate 1 section of Molecular Devices Quattro® Quattro Setup: • f. Load 384-well Population Patch Plate (Molecular Devices #9000-0902) into Quattro • g. Fill Quattro F-soak trough with 20% DMSO and 50% EtOH • h. Fill Quattro buffer trough with external buffer • i. Attach internal buffer flask to Quattro internal buffer tubing • j. Attach PBS (Phosphate Buffered Saline, minus Ca^++ and Mg^++, pH7.4) bottle to F-head & E-head wash on Quattro Antibiotic: • k. Resuspend 5.1-5.8 mg amphotericin B (Sigma Aldrich, catalog number A2411) in 175 μl DMSO • l. Add the resulting solution to 50 mL internal buffer and attach to antibiotic tubing port on Quattro Cells: • m. Use GIRK1/4 HEK293 stable cells (obtained from ChanTest, 14656 Neo Parkway, Cleveland, Ohio 44128) grown to ˜80% confluency in the following cell culture medium: DMEM containing 10% (v/v) Fetal Bovine Serum, Penicillin/Streptomycin (at “IX” concentration from a 100× stock), 0.5 mg/mL G418 and 0.1 mg/mL Zeocin. • n. Detach cells using Detachin (Genlantis, 11011 Torreyana, San Diego, CA 92121), washed with PBS (minus Ca^++ and Mg^++) and resuspend in external buffer (5 mL final volume at 2.0-2.1×10^6 cells/mL) • o. Load into cell trough of Quattro Assay Protocol:
Quattro was controlled using IonWorks v2 software to perform the following steps: • p. Added 3.5 μl cells plus 3.5 μl external buffer to wells of Quattro Patch Plate® • q. Circulated amphotericin B and internal buffer onto cells • r. Applied the following voltage protocol: Pulse 1: 15 mV for 300 milliseconds (ms), followed by Pulse 2: −120 mV for 400 ms, then Pulse 3: −15 mV for 400 ms, and finally Pulse 4: −120 mV to 40 mV over 500 ms (this is a voltage ramp). • s. Measured magnitude of inward potassium current at time point between 1200-1220 ms from start of Pulse 1 (i.e., during the voltage ramp phase). • t. Added 3.5 μl of diluted compounds (or DMSO) to wells and repeated […] (final compound concentrations are 50 uM to 0.1 uM, and each concentration was tested in quadruplicate—i.e., in 4 separate wells). • u. The difference between current magnitude pre vs. post-compound gave a measure of GIRK1/4 inhibition. Data Analysis:
IC50 values were calculated by plotting the percentage of current inhibition (normalized to the DMSO-only control) as a function of compound concentration using standard data analysis software.

[1] = Pharmacokinetic properties in rats (IV and PO, whole blood LC-MS/MS); type: in vivo, Spargue Dawley/CD, male; details: for Rat AUC0-24 h 3 mg/kg: 3 mg/kg PO, suspension; for Rat AUC0-24 h 3 mg/kg / clearance: whole blood; for clearance: male, Sprague Dawley/CD, rat, IV dosing (0.3-1 mg/kg), CL = Dose/AUCinf; for Rat F: oral bioavailability, PO 3 mg/kg vs IV
Description: The pharmacokinetic properties of the compounds in rats were assessed by the following in vivo studies as described below.
At least four days before first drug administration, the rats (250-350 g) were anesthetized and, under aseptic conditions, catheters were surgically implanted into the left and right jugular veins (one for blood collection and the other one for intravenous injection). The catheters were exteriorized and fixed at the neck. For analgesic treatment, animals received analgesics before surgery and subsequently twice at appropriate times after surgery. The freely-moving animals equipped with catheters are kept individually in Macrolon cages, with free access to food and water throughout the experiment. After a recovery phase of at least 4 days, a single test compound was administered intravenously or orally, based upon the individual body weights.
The test articles were administered as solution in NMP:PEG 200 (10:90 v/v). Test articles where no solution can be obtained were rejected and not used in discrete or cassette dosing.
The test article were administered as suspension in MC:Tween 80:water (0.5:0.1:99.4 w/v/v).
The test article was administered as solution and as a bolus injection or as short I.V. infusion (30 seconds) via the left jugular vein catheter to conscious rats. The dose volume was 0.5 mL/kg body weight.
The test article was administered as a solution or suspension into the esophagus via a gavage tube to conscious rats. The dose volume was 5 mL/kg body weight. The exact start time of dosing and exact dose volume was noted.
Blood samples (20 μL) were collected from the right jugular vein catheter of cannulated animals (if JV catheter becomes non patent during the PK experiment (i.e., after dosing), blood can exceptionally be collected by tail vein puncture but it must be clearly specified into the in-life observations and data study rep) in tubes containing 10% of blood of 2% W/V K2 EDTA (2.0 mg/mL) at the different time intervals. Blood was collected following IV dosing at 0.083, 0.25, 0.5, 1, 2, 4, 7 and 24 h post dose. Blood was collected following PO dosing: 0.25, 0.5, 1, 2, 4, 7 and 24 h post dose.
The concentrations of compounds in whole blood were quantified using a liquid chromatography/mass spectrometry (LC-MS/MS) assay. 20 μL of each blood sample were precipitated with 100 μL of acetonitrile containing generic internal standards (carbamazepine/telmisartan/verapamil; c=50 ng/mL). The samples were vortexed thoroughly then centrifuged (5 min, 4° C.). The supernatant (80 μL) was transferred to a clean 96-well plate and mixed with 80 μL of water.
The samples were injected (1 to 20 μL) onto suitable analytical columns, using various isocratic methods and flow rates. Mobile phases typically consisting of 0.1% formic acid in water (solvent A) and 0.1% formic acid in acetonitrile (solvent B) with additional modifiers, if needed. Compounds and the internal standards were eluted at various retention times. The HPLC systems were interfaced to mass spectrometers. MS/MS analyses were carried out using electrospray ionization (ESI), typically in the positive ionization mode. Compounds and the internal standards were monitored using multiple reaction monitoring (MRM).
The standard curves employed for sample quantitation ranged over several log units. The lower limit of quantitation (LLOQ) in blood was determined and used as cutoff for the analytical sensitivity. Known amounts of the compounds were spiked into blood to create quality control samples with six known concentrations in singlets. The accuracy of the in vivo blood sample concentration determination was considered acceptable when the intra-assay accuracies obtained for the quality control samples were within 70% to 130% of the expected concentrations. Subsequently, from the time concentration data, pharmacokinetic parameters were calculated by non-compartmental regression analyses using an in house fitting program. […]

Chain of GIRK1/4 (P48549 whole entry): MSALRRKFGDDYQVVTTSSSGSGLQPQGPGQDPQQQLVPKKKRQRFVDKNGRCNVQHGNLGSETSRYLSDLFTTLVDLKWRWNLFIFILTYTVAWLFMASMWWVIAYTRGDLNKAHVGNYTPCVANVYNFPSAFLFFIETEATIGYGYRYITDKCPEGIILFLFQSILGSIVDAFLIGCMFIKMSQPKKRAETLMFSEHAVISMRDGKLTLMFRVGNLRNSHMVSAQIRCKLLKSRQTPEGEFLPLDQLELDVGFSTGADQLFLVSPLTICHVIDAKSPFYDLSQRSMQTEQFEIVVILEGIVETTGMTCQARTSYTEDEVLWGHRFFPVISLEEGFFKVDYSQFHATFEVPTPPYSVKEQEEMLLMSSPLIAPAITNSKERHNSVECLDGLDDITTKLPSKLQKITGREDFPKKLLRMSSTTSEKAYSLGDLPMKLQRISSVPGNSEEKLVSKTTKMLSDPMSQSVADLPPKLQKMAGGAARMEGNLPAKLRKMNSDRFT
Chain of GIRK1/4 (P48544 whole entry): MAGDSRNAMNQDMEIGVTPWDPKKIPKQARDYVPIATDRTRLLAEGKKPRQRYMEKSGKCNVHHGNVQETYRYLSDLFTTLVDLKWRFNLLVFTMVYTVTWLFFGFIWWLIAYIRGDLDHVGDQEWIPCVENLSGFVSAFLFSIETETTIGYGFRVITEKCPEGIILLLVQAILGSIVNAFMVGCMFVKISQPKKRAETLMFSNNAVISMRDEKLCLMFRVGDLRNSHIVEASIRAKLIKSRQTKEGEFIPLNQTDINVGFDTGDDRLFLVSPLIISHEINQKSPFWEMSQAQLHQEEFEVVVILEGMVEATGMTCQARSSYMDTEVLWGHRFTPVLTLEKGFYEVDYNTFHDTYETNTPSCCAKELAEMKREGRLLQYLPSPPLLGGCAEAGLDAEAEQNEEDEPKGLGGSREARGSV

| Structure (SMILES) | IC50 (GIRK1/4) [nM] | Rat AUC0-24 h 3 mg/kg [1] [nMh] | clearance [1] [mL/min/kg] | Rat F [1] [%] |
| --- | --- | --- | --- | --- |
| CNC(=O)CCOc1ncc(Cl)c2c1c(=O)cc(C)n2-c1c(Cl)cc(OCC2(O)COC2)cc1Cl [Example 15, 3-((8-Chloro-1-(2,6-dichloro-4-((3-hydroxyoxetan-3-yl)methoxy)phenyl)-2-methyl-4-oxo-1,4-dihydro-1,6-naphthyridin-5-yl)oxy)-N-methylpropanamide] | 320 | 1290 | 32.8 | 46 |
| Cc1cc(=O)c2c(CC(C)S(C)(=O)=O)ncc(Cl)c2n1-c1c(Cl)cc(OCCO)cc1Cl (single isomer, unassigned) [Example 21, 8-Chloro-1-(2,6-dichloro-4-(2-hydroxyethoxy)phenyl)-2-methyl-5-(2-(methylsulfonyl)propyl)-1,6-naphthyridin-4(1H)-one] | 170 | 3200 | 10.4 | 34 |
| CC(=O)NCCCc1ncc(Cl)c2c1c(=O)cc(C)n2-c1c(Cl)cc(OCCO)cc1Cl [Example 19, N-(3-(8-Chloro-1-(2,6-dichloro-4-(2-hydroxyethoxy)phenyl)-2-methyl-4-oxo-1,4-dihydro-1,6-naphthyridin-5-yl)propyl)acetamide] | 50 | 1290 | 27.9 | 46 |
| CNC(=O)C(F)(F)COc1ncc(Cl)c2c1c(=O)cc(C)n2-c1c(Cl)cc(OCCO)cc1Cl [Example 16, 3-((8-Chloro-1-(2,6-dichloro-4-(2-hydroxyethoxy)phenyl)-2-methyl-4-oxo-1,4-dihydro-1,6-naphthyridin-5-yl)oxy)-2,2-difluoro-N-methylpropanamide] | 30 |  |  |  |
| Cc1cc(=O)c2c(OCCC(N)=O)ncc(Cl)c2n1-c1c(Cl)cc(OCCO)cc1Cl [Example 18] |  | 1702 | 38.9 | 65 |

Second part, the compound after the results:

| IC50 (GIRK1/4) [nM] | Rat AUC0-24 h 3 mg/kg [1] [nMh] | clearance [1] [mL/min/kg] | Rat F [1] [%] | Structure (SMILES) |
| --- | --- | --- | --- | --- |
| 170 |  |  |  | CNC(=O)[C@@H](O)COc1ncc(Cl)c2c1c(=O)cc(C)n2-c1c(Cl)cc(OCC(C)(C)O)cc1Cl [Example 14, (S)-3-((8-chloro-1-(2,6-dichloro-4-(2-hydroxy-2-methylpropoxy)phenyl)-2-methyl-4-oxo-1,4-dihydro-1,6-naphthyridin-5-yl)oxy)-2-hydroxy-N-methylpropanamide] |
| 200 |  |  |  | CNC(=O)[C@H](O)COc1ncc(Cl)c2c1c(=O)cc(C)n2-c1c(Cl)cc(OCCO)cc1Cl [Example 12, (R)-3-((8-Chloro-1-(2,6-dichloro-4-(2-hydroxyethoxy)phenyl)-2-methyl-4-oxo-1,4-dihydro-1,6-naphthyridin-5-yl)oxy)-2-hydroxy-N-methylpropanamide] |
| 160 | 3674 | 5.5 | 22 | CNC(=O)COc1ncc(Cl)c2c1c(=O)cc(C)n2-c1c(Cl)cc(OCC(C)(C)O)cc1Cl [Example 4, 2-((8-Chloro-1-(2,6-dichloro-4-(2-hydroxy-2-methylpropoxy)phenyl)-2-methyl-4-oxo-1,4-dihydro-1,6-naphthyridin-5-yl)oxy)-N-methylacetamide] |
| 70 |  |  |  | CNC(=O)[C@@H](C)COc1ncc(Cl)c2c1c(=O)cc(C)n2-c1c(Cl)cc(OCCO)cc1Cl [Example 8, (S)-3-((8-Chloro-1-(2,6-dichloro-4-(2-hydroxyethoxy)phenyl)-2-methyl-4-oxo-1,4-dihydro-1,6-naphthyridin-5-yl)oxy)-N,2-dimethylpropanamide] |
| 160 |  |  |  | CNC(=O)C(C)(C)COc1ncc(Cl)c2c1c(=O)cc(C)n2-c1c(Cl)cc(OCCO)cc1Cl [Example 11, 3-((8-Chloro-1-(2,6-dichloro-4-(2-hydroxyethoxy)phenyl)-2-methyl-4-oxo-1,4-dihydro-1,6-naphthyridin-5-yl)oxy)-N,2,2-trimethylpropanamide] |
| 330 |  |  |  | CNC(=O)CCOc1ncc(Cl)c2c1c(=O)cc(C)n2-c1c(Cl)cc(OC[C@H](C)O)cc1Cl [Example 10, (S)-3-((8-Chloro-1-(2,6-dichloro-4-(2-hydroxypropoxy)phenyl)-2-methyl-4-oxo-1,4-dihydro-1,6-naphthyridin-5-yl)oxy)-N-methylpropanamide] |

From patent US12084442B2, “Naphthyridinone derivatives for the treatment of a disease or disorder” (Novartis AG, priority 2021, dated 2024)
